In patent US20210382058A1, “PATIENT SELECTION FOR TREATMENT OF MYC POSITIVE CANCERS WITH INDENOISOQUINOLINES” (Purdue Research Foundation, priority 2020, published 2021):
Like-named read-outs stand apart in the source and are kept apart here.

Experiments:
[1] = test system: MYC protein expression in MCF-7 breast cancer cells; test: Western blotting of MYC protein level in MCF-7 cells; format: cell-based, human
Procedure, shortened: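 MCF-7 cells were exposed to compounds at 0.5, 1, 2 and 4 μM for 24 hours at 37° C. MYC was detected by immunoblot with ECL, using rabbit anti-MYC (1:1000) and anti-GAPDH (1:2000) as loading control.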

NCI-60 cancer cell lines = test: NCI-60 cancer cell line drug screen (GI50, MGM); format: cell-based, human; conditions: Homo sapiens; for GI50: read-out: Antiproliferative Activities [GI50 (μM)]
Procedure: Cancer cells were incubated with the test compounds at five concentrations ranging from 100 μM to 10 nM for 48 h. […] The approximate average of GI50 values across the entire panel of NCI-60 cancer cell lines for each compound was recorded as the MGM value.

human topoisomerase I = target: T1, human topoisomerase I (Homo sapiens, UniProt P11387); conditions: relative topoisomerase I inhibition levels, previously determined, six levels (0 - 5, +++++ = 5); cited from earlier work
T1 sequence (P11387 1-765): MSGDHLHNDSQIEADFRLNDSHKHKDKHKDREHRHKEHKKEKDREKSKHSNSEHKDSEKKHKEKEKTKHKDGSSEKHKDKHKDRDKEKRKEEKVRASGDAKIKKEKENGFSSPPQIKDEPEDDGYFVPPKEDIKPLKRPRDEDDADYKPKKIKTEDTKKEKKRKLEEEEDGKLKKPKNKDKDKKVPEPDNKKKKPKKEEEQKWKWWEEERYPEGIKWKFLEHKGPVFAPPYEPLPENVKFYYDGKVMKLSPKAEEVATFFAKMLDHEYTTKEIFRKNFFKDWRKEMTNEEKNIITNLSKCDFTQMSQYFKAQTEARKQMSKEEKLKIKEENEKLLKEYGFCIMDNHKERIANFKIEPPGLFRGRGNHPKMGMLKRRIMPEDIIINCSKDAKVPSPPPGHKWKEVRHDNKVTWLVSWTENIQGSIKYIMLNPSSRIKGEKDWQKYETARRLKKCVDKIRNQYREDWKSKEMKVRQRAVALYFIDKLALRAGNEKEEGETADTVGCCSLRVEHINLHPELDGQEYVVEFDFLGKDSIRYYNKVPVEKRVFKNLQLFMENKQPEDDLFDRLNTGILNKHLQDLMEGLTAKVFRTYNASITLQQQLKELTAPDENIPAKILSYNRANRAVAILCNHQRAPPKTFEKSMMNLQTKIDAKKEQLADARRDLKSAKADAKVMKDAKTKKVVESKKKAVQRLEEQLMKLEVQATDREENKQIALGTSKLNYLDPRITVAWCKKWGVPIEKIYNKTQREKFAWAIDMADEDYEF

CNCCCn1c2c(c3ccc(F)cc3c1=O)C(=O)c1cc(OC)cnc1-2 [Compound 6]
minimal effective concentration ([1]; Homo sapiens, MCF7, western blotting, MCF-7 cells, 0.5, 1, 2, and 4 μM, 24 hours, read-out: MYC Inhibition): 0.5 to 1 µM | MYC-inhibitory effect (MYC protein, western blot) ([1]; MCF-7, 0.5, 1, 2, and 4 μM, 24 h): clear MYC-inhibitory effect | GI50 (NCI-60 cancer cell lines; 786-0, Renal Cancer, 786-0): 0.2 µM | GI50 (NCI-60 cancer cell lines; A498, Renal Cancer, A498): 0.37 µM | GI50 (NCI-60 cancer cell lines; A549, Non-Small Cell Lung Cancer, A549/ATCC): 0.11 µM | GI50 (NCI-60 cancer cell lines; ACHN, Renal Cancer, ACHN): 0.12 µM | GI50 (NCI-60 cancer cell lines; BT-549, Breast Cancer, BT-549): 0.58 µM | GI50 (NCI-60 cancer cell lines; CCRF-CEM, Leukemia, CCRF-CEM): 0.26 µM | GI50 (NCI-60 cancer cell lines; COLO 205, Colon Cancer, COLO 205): 0.07 µM | GI50 (NCI-60 cancer cell lines; DU-145, Prostate Cancer, DU-145): 0.2 µM | GI50 (NCI-60 cancer cell lines; EKVX, Non-Small Cell Lung Cancer, EKVX): 0.3 µM | GI50 (NCI-60 cancer cell lines; HCC 2998, Colon Cancer, HCC-2998): 1.15 µM | GI50 (NCI-60 cancer cell lines; HCT-15, Colon Cancer, HCT-15): 0.25 µM | GI50 (NCI-60 cancer cell lines; HCT-116, Colon Cancer, HCT-116): 0.14 µM | GI50 (NCI-60 cancer cell lines; HL-60, Leukemia, HL-60(TB)): 0.22 µM | GI50 (NCI-60 cancer cell lines; HOP-62, Non-Small Cell Lung Cancer, HOP-62): 0.14 µM | GI50 (NCI-60 cancer cell lines; HOP-92, Non-Small Cell Lung Cancer, HOP-92): 0.37 µM | GI50 (NCI-60 cancer cell lines; HT-29, Colon Cancer, HT29): 0.15 µM | GI50 (NCI-60 cancer cell lines; Hs-578T, Breast Cancer, HS 578T): 2.24 µM | GI50 (NCI-60 cancer cell lines; IGROV-1, Ovarian Cancer, IGROV1): 0.32 µM | GI50 (NCI-60 cancer cell lines; K562, Leukemia, K-562): 0.17 µM | GI50 (NCI-60 cancer cell lines; KM12, Colon Cancer, KM12): 0.24 µM | GI50 (NCI-60 cancer cell lines; LOX IMVI, Melanoma, LOX IMVI): 0.14 µM | GI50 (NCI-60 cancer cell lines; Leukemia, SR): 0.12 µM | GI50 (NCI-60 cancer cell lines; MCF7, Breast Cancer, MCF7): 0.03 µM | GI50 (NCI-60 cancer cell lines; MDA-MB-231, Breast Cancer, MDA-MB-231/ATCC): 0.7 µM | GI50 (NCI-60 cancer cell lines; MDA-MB-435, Melanoma, MDA-MB-435): 0.47 µM | GI50 (NCI-60 cancer cell lines; MDA-MB-468, Breast Cancer, MDA-MB-468): 0.22 µM | GI50 (NCI-60 cancer cell lines; MOLT-4, Leukemia, MOLT-4): 0.04 µM | GI50 (NCI-60 cancer cell lines; Malme-3M, Melanoma, MALME-3M): 0.32 µM | GI50 (NCI-60 cancer cell lines; Melanoma, M14): 0.31 µM | GI50 (NCI-60 cancer cell lines; NCI-H23, Non-Small Cell Lung Cancer, NCI-H23): 0.31 µM | GI50 (NCI-60 cancer cell lines; NCI-H226, Non-Small Cell Lung Cancer, NCI-H226): 0.16 µM | GI50 (NCI-60 cancer cell lines; NCI-H322M, Non-Small Cell Lung Cancer, NCI-H322M): 0.45 µM | GI50 (NCI-60 cancer cell lines; NCI-H460, Non-Small Cell Lung Cancer, NCI-H460): 0.05 µM | GI50 (NCI-60 cancer cell lines; NCI-H522, Non-Small Cell Lung Cancer, NCI-H522): 0.06 µM | GI50 (NCI-60 cancer cell lines; OVCAR-3, Ovarian Cancer, OVCAR-3): 0.26 µM | GI50 (NCI-60 cancer cell lines; OVCAR-4, Ovarian Cancer, OVCAR-4): 0.42 µM | GI50 (NCI-60 cancer cell lines; OVCAR-5, Ovarian Cancer, OVCAR-5): 0.35 µM | GI50 (NCI-60 cancer cell lines; OVCAR-8, Ovarian Cancer, OVCAR-8): 0.19 µM | GI50 (NCI-60 cancer cell lines; Ovarian Cancer, NCl/ADR-RES): 0.43 µM | GI50 (NCI-60 cancer cell lines; Prostate Cancer, PC-3): 0.37 µM | GI50 (NCI-60 cancer cell lines; RPMI-8226, Leukemia, RPMI-8226): 0.2 µM | GI50 (NCI-60 cancer cell lines; RXF 393, Renal Cancer, RXF 393): 0.32 µM | GI50 (NCI-60 cancer cell lines; Renal Cancer, U0-31): 0.13 µM | GI50 (NCI-60 cancer cell lines; SF-268, CNS Cancer, SF-268): 0.38 µM | GI50 (NCI-60 cancer cell lines; SF-295, CNS Cancer, SF-295): 0.19 µM | GI50 (NCI-60 cancer cell lines; SF-539, CNS Cancer, SF-539): 0.37 µM | GI50 (NCI-60 cancer cell lines; SK-MEL-2, Melanoma, SK-MEL-2): 1.6 µM | GI50 (NCI-60 cancer cell lines; SK-MEL-5, Melanoma, SK-MEL-5): 0.31 µM | GI50 (NCI-60 cancer cell lines; SK-MEL-28, Melanoma, SK-MEL-28): 1.44 µM | GI50 (NCI-60 cancer cell lines; SK-OV-3, Ovarian Cancer, SK-OV-3): 0.23 µM | GI50 (NCI-60 cancer cell lines; SN12C, Renal Cancer, SN12C): 0.21 µM | GI50 (NCI-60 cancer cell lines; SNB-19, CNS Cancer, SNB-19): 0.22 µM | GI50 (NCI-60 cancer cell lines; SNB-75, CNS Cancer, SNB-75): 0.25 µM | GI50 (NCI-60 cancer cell lines; SW-620, Colon Cancer, SW-620): 0.18 µM | GI50 (NCI-60 cancer cell lines; T47D, Breast Cancer, T-47D): 0.16 µM | GI50 (NCI-60 cancer cell lines; TK-10, Renal Cancer, TK-10): 0.33 µM | GI50 (NCI-60 cancer cell lines; U-251, CNS Cancer, U251): 0.11 µM | GI50 (NCI-60 cancer cell lines; UACC-62, Melanoma, UACC-62): 0.61 µM | GI50 (NCI-60 cancer cell lines; UACC-257, Melanoma, UACC-257): 0.49 µM | mean GI50 across NCI-60 panel (MGM) (NCI-60 cancer cell lines; average of GI50 values across the entire panel of NCI-60 cancer cell lines): 240 nM | Top1 Inhibiton (human topoisomerase I): + (weak inhibition, +, MYC expression inhibited at 4.0 μM)
